Measured values as given in patent US7371734B2, “Oligonucleotide compositions and their use for the modulation of immune responses” (Bioniche Life Sciences Inc., priority 2002, dated 2008).
Marks after values point to notes of the source that are not given here.

Key:
female BALB/C mice = assay: Vaccination with hepatitis surface antigen (intramuscular), anti-HbsAg end-point dilution ELISA; assay type: in vivo
Procedure: Immunization with recombinant hepatitis B surface antigen (HbsAg; Cortex Biochemical, San Leandro, Calif., USA) combined with aluminum hydroxide (Alum; SuperFos Biosector, Vedback, Denmark) and/or with N3A, N6A or N6B polynucleotides, was conducted on 6-8 week old female BALB/C mice (Charles River, St-Constant, Qc, Canada). Each mouse (5 mice per group) received a single intramuscular injection into the tibialis muscle of a solution containing: Saline (Group 1), HbsAg 1 μg (Group 2), HbsAg 1 μg+Alum 10 μg (Group 3), HbsAg 1 μg+Alum 10 μg+N3A 10 μg (Group 4), HbsAg 1 μg+Alum 10 μg+N3A 100 μg (Group 5), HbsAg 1 μg+Alum 10 μg+N3B10 μg (Group 6), HbsAg 1 μg+Alum 10 μg+N3B100 μg (Group 7), HbsAg 1 μg+Alum 10 μg+N6A 10 μg (Group 8), HbsAg 1 μg+Alum 10 μg+N6A 100 μg (Group 9), HbsAg 1 μg+Alum 10 μg+N6B 10 μg (Group 10) and HbsAg 1 μg+Alum 10 μg+N6B 100 μg (Group 11) in a total volume of 50 μl at day 0 and day 21. Plasma was recovered at day 31.
Antibodies specific to HbsAg were detected and quantified by end-point dilution assay ELISA. Briefly, a solid phase of HbsAg protein (0.1 μg per well, overnight at 4° C.) was used to capture anti-HbsAg in the plasma (1 hour at 37° C.), which were then detected with horseradish peroxidase-conjugated goat anti-mouse IgG (total), IgG1 and IgG2a following the instructions of the manufacturer (Clonetyping system, Southern Biotechnology Inc., Birmingham, Ala., USA). […] Data are expressed in Table 13 as the mean±SD of 5 mice per group.

Human dendritic cells [1] = assay: CD86 levels at the DC cell surface (flow cytometry); assay type: cell-based; conditions: 100 μg, 48 hours
Procedure, shortened: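 Human DCs (from donors B and C) at 1.0×10^5 cells/ml were exposed 48 h to 100 μg of 6-base polynucleotides. Surface CD86 was measured by flow cytometry with a PE-conjugated anti-CD86 mAb. Values are % CD86^hi DC after treatment.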

Human dendritic cells [2] = assay: CD80 levels at the DC cell surface (flow cytometry); assay type: cell-based; conditions: 100 μg, 48 hours
Procedure, shortened: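 Human dendritic cells from two donors, at 1.0×10^5 cells/ml, were exposed 48 h to 100 μg of 6-base polynucleotides. Surface CD80 was measured by flow cytometry with a FITC anti-CD80 antibody. Values are % CD80^hi DC.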

Human dendritic cells [3] = assay: MHC-II levels at the DC cell surface (flow cytometry); assay type: cell-based; conditions: DC from individual B; 100 μg, 48 hours
Procedure, shortened: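 Dendritic cells from one donor were seeded at 1.0×10^5 cells/ml and treated for 48 h with 100 μg of 6-base polynucleotides. Surface MHC II was then measured by flow cytometry with a FITC-conjugated anti-MHC II antibody. Values are the percentage of MHC II^hi DC.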

Human dendritic cells [4] = assay: Induction of IL-12 production by DC (ELISA); assay type: cell-based; conditions: 100 μg, 48 hours
Procedure, shortened: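 Human DCs from three donors, 1.0×10^5 cells/ml, exposed 48 h to 100 μg of 6-base polynucleotides. IL-12 in culture supernatant measured by ELISA. Values given as fold increase over untreated control cells.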

Human dendritic cells [5] = assay: CD40 levels at the DC cell surface (flow cytometry); assay type: cell-based; conditions: 100 μg, 48 hours
Procedure, shortened: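 DCs from two donors, seeded at 1.0×10^5 cells/ml, were exposed for 48 h to 100 μg of 6-base polynucleotides. Surface CD40 was then measured by flow cytometry with a FITC anti-CD40 mAb. Values are the percentage of CD40^hi DC, meaning above-baseline CD40 expression.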

[6] = HbsAg 1 μg + Alum 10 μg + polynucleotide 10 μg i.m. day 0 and 21, plasma day 31
[7] = HbsAg 1 μg + Alum 10 μg + polynucleotide 100 μg i.m. day 0 and 21, plasma day 31

Substance | End-point titers IgG1, mean ± SD (female BALB/C mice; [6]) | End-point titers IgG2a, mean ± SD (female BALB/C mice; [6]) | End-point titers IgG total, mean ± SD (female BALB/C mice; [6]) | End-point titers IgG1, mean ± SD (female BALB/C mice; [7]) | End-point titers IgG2a, mean ± SD (female BALB/C mice; [7]) | End-point titers IgG total, mean ± SD (female BALB/C mice; [7]) | The percentage of CD86^hi DC following treatment (Human dendritic cells [1]; DC from individual B) | The percentage of CD86^hi DC following treatment (Human dendritic cells [1]; DC from individual C) | The percentage of CD80^hi DC following treatment (Human dendritic cells [2]; DC from individual B) | The percentage of CD80^hi DC following treatment (Human dendritic cells [2]; DC from individual C) | The percentage of MHC-II^hi DC following treatment (Human dendritic cells [3]) | IL-12 production by DC (fold increase compared to untreated DC) (Human dendritic cells [4]; DC isolated from individual A) | IL-12 production by DC (fold increase compared to untreated DC) (Human dendritic cells [4]; DC isolated from individual B) | IL-12 production by DC (fold increase compared to untreated DC) (Human dendritic cells [4]; DC isolated from individual C) | The percentage of CD40^hi DC following treatment (Human dendritic cells [5]; DC from individual B) | The percentage of CD40^hi DC following treatment (Human dendritic cells [5]; DC from individual C)
5′GGGTGG3′ [N3A] | 9300 ± 3365 | 272 ± 255 | 849 ± 386 | 13320 ± 12993 | 860 ± 719 | 1985 ± 1748 | 16% | 37** % | 12% | 18% | 23% | 1.0 fold | 1.0 fold | 1.0 fold | 36** % | 20%
5′GGGTGG3′ [N3B] | 3460 ± 1680 | 120 ± 26 | 287 ± 142 | 4460 ± 1884 | 204 ± 129 | 437 ± 305 | 30** % | 39** % | 5% | 3% | 25% | 5.2 fold | 17.3 fold | 14.4 fold | 33** % | 14%
5′GGGAGG3′ [N6A] (unmodified DNA) | 2010 ± 2187 | 250 ± 257 | 439 ± 705 | 6420 ± 2528 | 291 ± 154 | 1185 ± 607 | 24** % | 18% | 15% | 17% | 25% | 1.0 fold | 1.0 fold | 1.0 fold | 35** % | 15%
5′GGGAGG3′ [N6B] (DNA, backbone not given here; further chemistry not fully specified) | 2880 ± 1126 | 187 ± 46 | 551 ± 309 | 3560 ± 1210 | 205 ± 76 | 660 ± 364 | 15% | 33% | 4% | 4% | 27% | 1.3 fold | 1.4 fold | 4.1 fold | 28** % | 15%
